Experimental data: patent US10660836B2, “Hydroxy functionalized solvent based skin benefit composition” (Conopco, Inc., priority 2015, dated 2020)

Assay: Transparency (no crystallization or gelation) of 12-hydroxystearic acid compositions after manufacturing, visual inspection
Type: physicochemical
Set-up: key: C: a substantially transparent or transparent composition for at least three (3) months after manufacturing; X: an opaque (non-transparent, non-translucent) composition inconsistent with the claimed compositions of this invention and where benefit agent crystallization or composition gelation is almost immediately observed
Conditions: SBA = 12-hydroxystearic acid
From the text: Cosmetic composition is meant to mean a leave-on or wash-off composition, preferably leave-on, for topical application to mammals, especially humans. Such a composition can include tonics, lotions, personal washes, serums, spot correctors, compositions for facial masks or wipes, make-up removers, patches, scrubs or the like. Substantially transparent as used herein, means allowing light to pass but diffusing the light so that items on the opposite side of light entry are not clearly visible. Substantially transparent is synonymous with translucent. Transparent, as used herein, means capable of transmitting light where objects opposite the point of entry of light are seen clearly upon a visable inspection (i.e., 2.5 cm of sample placed 5 cm over an object and viewed from 25 cm away from viewer's eyes). Flowable, as used herein, means having a viscosity from 0 to 8,000 cps, and preferably, from 10 to 4,000 cps, and most preferably, from 500 to 2,000 cps, including all ranges subsumed therein (viscosity measured on a Brookfield Viscometer, 24° C., 20 RPM, Spindle RV2). Free of crystallization and gelation as used herein means remaining at least substantially transparent (preferably transparent) at ambient temperature for at least three (3) months. Use of substantially transparent, transparent and translucent herein is based on the mixture of hydroxy functionalized solvent (with or without miscible co-solvent) and 12-hydroxystearic acid. It is not to say the mixture cannot, for example, comprise an optional opacifier. Hydroxy group density (“HD”) means the molecular weight of total solvent hydroxy group/the molecular weight of the solvent where solvent hydroxy group can include the hydroxy group on a carboxylic acid group. Methanol, for example, has an HD of 0.53, 17 g/mol/32 g/mol. Regarding optional additives, they may be used according to their solubility where those that are not water soluble may be selected for use in the composition substantially free of water as described herein and those which are water soluble may be used in the aforementioned optional but separate and distinct phase. Miscible/Soluble, as used herein, means ability to mix/dissolve homogeneously at 70 to 85° C. and remain homogeneously dissolved or mixed upon cooling. Comprising, as used herein, is meant to include consisting essentially of and consisting of. For the avoidance of doubt, therefore, the composition of this invention may consist essentially of or consist of 12-hydroxystearic acid and hydroxy functionalized solvent. Anhydrous as used herein means a composition substantially free of water whereby the composition is less than 2% by weight water, and preferably, less than 1% by weight water based on total weight of the composition comprising 12-hydroxystearic acid and hydroxy functionalized solvent. Anhydrous also includes free of water (i.e., no water) within the composition comprising 12-hydroxystearic and hydroxy fuctionalized solvent. Double phase product includes a two (2) portion product that may be separately packaged or preferably a biphasic product (i.e., distinct immiscible portions). Skin benefit agent means an agent in addition to hydroxyl functionalized solvent and 12-hydroxystearic acid that provides benefit to skin. The skin benefit agent used in the anhydrous composition of the invention that comprises 12-hydroxystearic acid is preferably soluble or miscible in the same. To the extent optional water miscible/soluble actives or ingredients are used, they will preferably be provided, as later described, in a double phase product with the anhydrous composition of this invention, the double phase product having a distinct phase often being a water phase (including emulsions, solutions and dispersions), water containing concentrate or water soluble solid, particulate or powder. Water phase, as used herein, includes a composition having 2% or more water, and preferably, from 10% to 98% by weight water based on total weight of the water phase. […]

## CCOCCOCCO [2-(2-Ethoxyethoxy)ethanol]
1% SBA/99% Solvent
  Transparency of composition: C (a substantially transparent or transparent composition for at least three (3) months after manufacturing)
3% SBA/97% Solvent
  Transparency of composition: C (a substantially transparent or transparent composition for at least three (3) months after manufacturing)
5% SBA/95% Solvent
  Transparency of composition: C (a substantially transparent or transparent composition for at least three (3) months after manufacturing)
10% SBA/90% Solvent
  Transparency of composition: X
15% SBA/85% Solvent
  Transparency of composition: X
20% SBA/80% Solvent
  Transparency of composition: X
25% SBA/75% Solvent
  Transparency of composition: X

## OCc1ccccc1 [Benzyl Alcohol]
1% SBA/99% Solvent
  Transparency of composition: C (a substantially transparent or transparent composition for at least three (3) months after manufacturing)
3% SBA/97% Solvent
  Transparency of composition: C (a substantially transparent or transparent composition for at least three (3) months after manufacturing)
5% SBA/95% Solvent
  Transparency of composition: C (a substantially transparent or transparent composition for at least three (3) months after manufacturing)
10% SBA/90% Solvent
  Transparency of composition: X
15% SBA/85% Solvent
  Transparency of composition: X
20% SBA/80% Solvent
  Transparency of composition: X
25% SBA/75% Solvent
  Transparency of composition: X

## OCCCCO [Butylene Glycol]
1% SBA/99% Solvent
  Transparency of composition: C (a substantially transparent or transparent composition for at least three (3) months after manufacturing)
3% SBA/97% Solvent
  Transparency of composition: X
5% SBA/95% Solvent
  Transparency of composition: X
10% SBA/90% Solvent
  Transparency of composition: X
15% SBA/85% Solvent
  Transparency of composition: X
20% SBA/80% Solvent
  Transparency of composition: X
25% SBA/75% Solvent
  Transparency of composition: X

## CCO [Ethanol]
1% SBA/99% Solvent
  Transparency of composition: C (a substantially transparent or transparent composition for at least three (3) months after manufacturing)
3% SBA/97% Solvent
  Transparency of composition: C (a substantially transparent or transparent composition for at least three (3) months after manufacturing)
5% SBA/95% Solvent
  Transparency of composition: C (a substantially transparent or transparent composition for at least three (3) months after manufacturing)
10% SBA/90% Solvent
  Transparency of composition: C (a substantially transparent or transparent composition for at least three (3) months after manufacturing)
15% SBA/85% Solvent
  Transparency of composition: C (a substantially transparent or transparent composition for at least three (3) months after manufacturing)
20% SBA/80% Solvent
  Transparency of composition: X
25% SBA/75% Solvent
  Transparency of composition: X

## CC(C)CCCCCCCCCCCCCCC(=O)O [Isostearic Acid]
1% SBA/99% Solvent
  Transparency of composition: C (a substantially transparent or transparent composition for at least three (3) months after manufacturing)
3% SBA/97% Solvent
  Transparency of composition: C (a substantially transparent or transparent composition for at least three (3) months after manufacturing)
5% SBA/95% Solvent
  Transparency of composition: X
10% SBA/90% Solvent
  Transparency of composition: X
15% SBA/85% Solvent
  Transparency of composition: X
20% SBA/80% Solvent
  Transparency of composition: X
25% SBA/75% Solvent
  Transparency of composition: X

## CC(C)CCCCCCCCCCCCCCCO [Isostearyl Alcohol]
1% SBA/99% Solvent
  Transparency of composition: C (a substantially transparent or transparent composition for at least three (3) months after manufacturing)
3% SBA/97% Solvent
  Transparency of composition: C (a substantially transparent or transparent composition for at least three (3) months after manufacturing)
5% SBA/95% Solvent
  Transparency of composition: X
10% SBA/90% Solvent
  Transparency of composition: X
15% SBA/85% Solvent
  Transparency of composition: X
20% SBA/80% Solvent
  Transparency of composition: X
25% SBA/75% Solvent
  Transparency of composition: X

## CO [Methanol]
1% SBA/99% Solvent
  Transparency of composition: C (a substantially transparent or transparent composition for at least three (3) months after manufacturing)
3% SBA/97% Solvent
  Transparency of composition: C (a substantially transparent or transparent composition for at least three (3) months after manufacturing)
5% SBA/95% Solvent
  Transparency of composition: C (a substantially transparent or transparent composition for at least three (3) months after manufacturing)
10% SBA/90% Solvent
  Transparency of composition: C (a substantially transparent or transparent composition for at least three (3) months after manufacturing)
15% SBA/85% Solvent
  Transparency of composition: C (a substantially transparent or transparent composition for at least three (3) months after manufacturing)
20% SBA/80% Solvent
  Transparency of composition: C (a substantially transparent or transparent composition for at least three (3) months after manufacturing)
25% SBA/75% Solvent
  Transparency of composition: X

## CCCCCCCCCCC(CO)CCCCCCCC (stereo not drawn) [Octyldodecanol]
1% SBA/99% Solvent
  Transparency of composition: C (a substantially transparent or transparent composition for at least three (3) months after manufacturing)
3% SBA/97% Solvent
  Transparency of composition: C (a substantially transparent or transparent composition for at least three (3) months after manufacturing)
5% SBA/95% Solvent
  Transparency of composition: X
10% SBA/90% Solvent
  Transparency of composition: X
15% SBA/85% Solvent
  Transparency of composition: X
20% SBA/80% Solvent
  Transparency of composition: X
25% SBA/75% Solvent
  Transparency of composition: X

## OCCOc1ccccc1 [Pehnoxyethanol]
1% SBA/99% Solvent
  Transparency of composition: C (a substantially transparent or transparent composition for at least three (3) months after manufacturing)
3% SBA/97% Solvent
  Transparency of composition: C (a substantially transparent or transparent composition for at least three (3) months after manufacturing)
5% SBA/95% Solvent
  Transparency of composition: C (a substantially transparent or transparent composition for at least three (3) months after manufacturing)
10% SBA/90% Solvent
  Transparency of composition: X
15% SBA/85% Solvent
  Transparency of composition: X
20% SBA/80% Solvent
  Transparency of composition: X
25% SBA/75% Solvent
  Transparency of composition: X

## CC(O)CO (stereo not drawn) [Propylene Glycol]
1% SBA/99% Solvent
  Transparency of composition: C (a substantially transparent or transparent composition for at least three (3) months after manufacturing)
3% SBA/97% Solvent
  Transparency of composition: X
5% SBA/95% Solvent
  Transparency of composition: X
10% SBA/90% Solvent
  Transparency of composition: X
15% SBA/85% Solvent
  Transparency of composition: X
20% SBA/80% Solvent
  Transparency of composition: X
25% SBA/75% Solvent
  Transparency of composition: X

## Conjugated Linoleic Acid
1% SBA/99% Solvent
  Transparency of composition: C (a substantially transparent or transparent composition for at least three (3) months after manufacturing)
3% SBA/97% Solvent
  Transparency of composition: C (a substantially transparent or transparent composition for at least three (3) months after manufacturing)
5% SBA/95% Solvent
  Transparency of composition: X
10% SBA/90% Solvent
  Transparency of composition: X
15% SBA/85% Solvent
  Transparency of composition: X
20% SBA/80% Solvent
  Transparency of composition: X
25% SBA/75% Solvent
  Transparency of composition: X

## Ethylhexyl Hydroxystearate
1% SBA/99% Solvent
  Transparency of composition: C (a substantially transparent or transparent composition for at least three (3) months after manufacturing)
3% SBA/97% Solvent
  Transparency of composition: X
5% SBA/95% Solvent
  Transparency of composition: X
10% SBA/90% Solvent
  Transparency of composition: X
15% SBA/85% Solvent
  Transparency of composition: X
20% SBA/80% Solvent
  Transparency of composition: X
25% SBA/75% Solvent
  Transparency of composition: X
